One test concerns Winter wheat. The test can be described thus: Field test: herbicidal damage to winter wheat after pre-emergence fomesafen, with or without safener A seed treatment. The note with it: seed treatment 100 g/100 kg seed; fomesafen up to 560 g/ha. Here is the method:
Winter wheat seed is treated with safener A (1-[4-(N-2-methoxybenzoylsulfamoyl)phenyl]-3-methylurea) at 100 g safener/100 kg of seed. Control seed is also included which contains no safener seed treatment. The wheat seed is then planted in a field as a randomized block design including four replications.

Test [1] relates to maize varieties (LEXXOR, PACTOL, CLAXXON, GARLAND and SUNDANCE). Description: Greenhouse study: herbicidal damage to maize after pre-emergence PPGO inhibiting herbicides, with or without safener seed treatment. It counts as in vivo. The note with it: seed treatment 1 g/kg seed; 8 DAA. Here is the method:
A greenhouse study is performed to evaluate the safener response of various maize varieties to various PPGO inhibiting herbicides. […] Control seed is also included in the test which contains no safener seed treatment. Herbicide treatments are applied pre-emergence, at the indicated application rates, using a laboratory tracksprayer with a TeeJet 11002VS nozzle. The sprayer is set to deliver an output of 200 L/ha by applying an air pressure of 2 bar. The treated and control seeds are then planted in the treated sandy loam soil contained in 10 cm deep plastic trays and watered from the top of the trays as needed.

As to `CNC(=O)Nc1ccc(S(=O)(=O)NC(=O)c2ccccc2OC)cc1` [Safener A, 1-[4-(N-2-methoxybenzoylsulfamoyl)phenyl]-3-methylurea], the “Safening of fomesafen in winter wheat” value with Winter wheat is listed as “highly effective safening”. Moreover, in test [1], the “Safening against sulfentrazone in maize” value is listed as “particularly good safening” and the “Safening of the various PPGO inhibiting herbicides tested in maize” value is recorded as “highly effective safening”.

(Values after US9072295B2, “Herbicidal compositions” (Syngenta Participations AG, priority 2011, dated 2015).)
